Results reported in doi:10.1101/2024.08.19.608619, “Discovery of potent SARS-CoV-2 nsp3 macrodomain inhibitors uncovers lack of translation to cellular antiviral response” (bioRxiv, 2024).
pEC50: −log10 of the molar value. Several values for one entry are separate records, joined by “and”; a condition that tells them apart may be missing. Equal values may be shown once. Read-outs that look alike come from different tables or passages of the source.

How the values were obtained:
HeLa-ACE2 cells = conditions: for perc_max_measured: highest measured response of the dose series; for perc_min_measured: lowest measured response of the dose series
[1] = tested on: SARS-CoV-2, isolate USA-WA1/2020; experiment: microbe, parasite or virus in culture; assay type: cell-based
beta2 (h) = biological target: T1, beta2 (h) (Homo sapiens, UniProt P07550); experiment: In vitro CEREP profiling, beta2 (h) (antagonist radioligand); assay type: binding; conditions: test compound 10 uM
T1 construct: purchased Eurofins Cerep (SafetyScreen44), recognised from the panel format
T1 sequence (P07550 whole entry): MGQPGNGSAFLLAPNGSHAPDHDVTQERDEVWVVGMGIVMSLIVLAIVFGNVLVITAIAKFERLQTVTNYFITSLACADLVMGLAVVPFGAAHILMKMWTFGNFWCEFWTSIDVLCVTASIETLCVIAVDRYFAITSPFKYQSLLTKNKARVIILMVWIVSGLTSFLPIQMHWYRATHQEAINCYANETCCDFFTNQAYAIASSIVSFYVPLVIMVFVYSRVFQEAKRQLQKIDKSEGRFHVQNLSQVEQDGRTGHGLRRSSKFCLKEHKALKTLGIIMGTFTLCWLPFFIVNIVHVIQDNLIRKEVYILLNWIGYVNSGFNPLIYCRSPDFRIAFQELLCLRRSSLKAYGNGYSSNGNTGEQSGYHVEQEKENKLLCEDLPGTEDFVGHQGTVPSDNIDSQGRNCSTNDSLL
Source text: (§1) Supplement media-1.zip/Safety_Panel_Profile.csv, table | column: perc_inhibition

[2] = In vitro rat hepatocyte stability; assay type: in vitro ADME
Source text: (§2) Supplement media-1.zip/Hepatocyte_Stability.csv, table | column: clint; t_half

CB2 (h) = biological target: T2, CB2 (h) (Homo sapiens, UniProt P34972); experiment: In vitro CEREP profiling, CB2 (h) (agonist radioligand); assay type: binding; conditions: test compound 10 uM
T2 construct: purchased Eurofins Cerep (SafetyScreen44), recognised from the panel format
T2 sequence (P34972 whole entry): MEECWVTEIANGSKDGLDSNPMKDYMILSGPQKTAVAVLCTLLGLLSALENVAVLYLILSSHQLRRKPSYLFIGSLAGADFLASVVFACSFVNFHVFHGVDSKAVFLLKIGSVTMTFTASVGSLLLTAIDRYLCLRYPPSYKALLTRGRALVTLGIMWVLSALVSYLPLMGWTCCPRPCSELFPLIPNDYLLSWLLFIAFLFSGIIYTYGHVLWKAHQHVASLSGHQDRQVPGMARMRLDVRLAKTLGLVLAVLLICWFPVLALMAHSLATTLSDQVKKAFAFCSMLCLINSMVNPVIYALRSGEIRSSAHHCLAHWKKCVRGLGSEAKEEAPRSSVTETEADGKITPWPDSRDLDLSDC
Source text: as §1

5-HT1B (h) = biological target: T3, 5-HT1B (h) (Homo sapiens, UniProt P28222); experiment: In vitro CEREP profiling, 5-HT1B (h) (antagonist radioligand); assay type: binding; conditions: test compound concentration 10 uM
T3 construct: purchased Eurofins Cerep (SafetyScreen44), recognised from the panel format
T3 sequence (P28222 whole entry): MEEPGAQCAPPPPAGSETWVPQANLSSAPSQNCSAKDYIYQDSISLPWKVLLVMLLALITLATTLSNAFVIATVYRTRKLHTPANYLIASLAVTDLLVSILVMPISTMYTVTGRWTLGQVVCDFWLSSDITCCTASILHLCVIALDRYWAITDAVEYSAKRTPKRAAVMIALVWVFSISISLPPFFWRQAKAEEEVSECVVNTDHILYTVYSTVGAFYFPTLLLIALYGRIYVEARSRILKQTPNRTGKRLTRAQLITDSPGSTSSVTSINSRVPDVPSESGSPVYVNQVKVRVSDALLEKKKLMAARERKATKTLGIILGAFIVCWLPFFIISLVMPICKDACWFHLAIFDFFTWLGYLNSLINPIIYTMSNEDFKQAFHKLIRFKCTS
Source text: as §1

KOR receptor = biological target: T4, KOR receptor (Homo sapiens, UniProt P41145); experiment: Eurofins CEREP panel, KOR; assay type: binding; conditions: kappa (h) (KOP) (agonist radioligand), test compound concentration 10 uM
T4 construct: purchased Eurofins Cerep (SafetyScreen44), recognised from the panel format
T4 sequence (P41145 whole entry): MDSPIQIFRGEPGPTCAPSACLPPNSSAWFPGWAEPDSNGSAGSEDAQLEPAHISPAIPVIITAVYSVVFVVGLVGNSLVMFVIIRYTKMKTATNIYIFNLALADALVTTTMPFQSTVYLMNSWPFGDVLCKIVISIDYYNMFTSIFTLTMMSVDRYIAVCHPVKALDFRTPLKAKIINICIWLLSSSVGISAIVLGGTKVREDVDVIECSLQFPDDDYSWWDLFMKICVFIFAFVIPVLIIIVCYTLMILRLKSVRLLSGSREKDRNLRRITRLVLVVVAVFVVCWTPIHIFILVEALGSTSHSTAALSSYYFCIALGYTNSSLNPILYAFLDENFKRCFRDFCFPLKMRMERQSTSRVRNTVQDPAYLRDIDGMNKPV

KV channel = experiment: In vitro CEREP profiling, KV channel (antagonist radioligand); assay type: binding; conditions: test compound concentration 10 uM
Source text: as §1

CB1 (h) = biological target: T5, CB1 (h) (Homo sapiens, UniProt P21554); experiment: In vitro CEREP profiling, CB1 (h) (agonist radioligand); assay type: binding; conditions: test compound 10 uM
T5 construct: purchased Eurofins Cerep (SafetyScreen44), recognised from the panel format
T5 sequence (P21554 whole entry): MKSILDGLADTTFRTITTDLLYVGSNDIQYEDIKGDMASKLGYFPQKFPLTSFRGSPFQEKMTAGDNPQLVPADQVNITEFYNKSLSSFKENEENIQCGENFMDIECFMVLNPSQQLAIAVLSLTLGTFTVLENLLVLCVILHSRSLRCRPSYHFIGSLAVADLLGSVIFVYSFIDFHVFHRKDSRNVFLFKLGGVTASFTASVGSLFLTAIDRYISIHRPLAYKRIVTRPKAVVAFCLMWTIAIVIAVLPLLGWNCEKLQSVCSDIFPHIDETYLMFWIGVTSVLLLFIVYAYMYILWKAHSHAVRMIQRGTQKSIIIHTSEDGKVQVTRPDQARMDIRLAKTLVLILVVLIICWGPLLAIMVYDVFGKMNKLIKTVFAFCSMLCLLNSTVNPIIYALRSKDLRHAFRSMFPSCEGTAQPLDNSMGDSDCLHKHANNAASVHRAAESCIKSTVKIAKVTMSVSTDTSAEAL
Source text: as §1

A2A (h) = biological target: T6, A2A (h) (Homo sapiens, UniProt P29274); experiment: In vitro CEREP profiling, A2A (h) (agonist radioligand); assay type: binding; conditions: test compound 10 uM
T6 construct: purchased Eurofins Cerep (SafetyScreen44), recognised from the panel format
T6 sequence (P29274 whole entry): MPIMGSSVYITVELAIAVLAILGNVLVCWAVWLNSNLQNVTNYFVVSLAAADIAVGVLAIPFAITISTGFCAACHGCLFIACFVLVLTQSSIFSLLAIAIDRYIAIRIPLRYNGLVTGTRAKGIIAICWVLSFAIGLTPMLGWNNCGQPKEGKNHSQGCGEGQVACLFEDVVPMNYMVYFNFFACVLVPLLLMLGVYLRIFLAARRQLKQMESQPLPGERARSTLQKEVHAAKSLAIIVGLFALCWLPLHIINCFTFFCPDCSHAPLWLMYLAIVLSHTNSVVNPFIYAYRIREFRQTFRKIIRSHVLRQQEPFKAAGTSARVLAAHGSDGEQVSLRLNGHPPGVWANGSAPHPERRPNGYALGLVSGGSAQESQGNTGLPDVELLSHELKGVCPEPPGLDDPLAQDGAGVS
Source text: as §1

H1 (h) = biological target: T7, H1 (h) (Homo sapiens, UniProt P35367); experiment: In vitro CEREP profiling, H1 (h) (antagonist radioligand); assay type: binding; conditions: test compound concentration 10 uM
T7 construct: purchased Eurofins Cerep (SafetyScreen44), recognised from the panel format
T7 sequence (P35367 whole entry): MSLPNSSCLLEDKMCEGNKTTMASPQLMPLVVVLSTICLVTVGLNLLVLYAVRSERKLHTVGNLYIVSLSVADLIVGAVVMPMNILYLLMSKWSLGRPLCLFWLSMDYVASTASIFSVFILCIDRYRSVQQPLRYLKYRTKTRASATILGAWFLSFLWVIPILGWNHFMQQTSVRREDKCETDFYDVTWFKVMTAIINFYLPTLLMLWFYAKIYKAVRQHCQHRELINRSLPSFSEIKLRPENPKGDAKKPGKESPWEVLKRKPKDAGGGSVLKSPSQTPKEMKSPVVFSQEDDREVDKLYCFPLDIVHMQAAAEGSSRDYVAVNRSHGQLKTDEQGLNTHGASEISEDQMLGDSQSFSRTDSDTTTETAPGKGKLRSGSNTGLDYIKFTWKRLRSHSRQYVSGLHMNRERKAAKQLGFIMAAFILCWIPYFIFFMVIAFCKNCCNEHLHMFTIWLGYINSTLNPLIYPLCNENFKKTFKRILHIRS
Source text: as §1

mu (MOP) (h) = biological target: T8, mu (MOP) (h) (Homo sapiens, UniProt P35372); experiment: In vitro CEREP profiling, mu (MOP) (h) (agonist radioligand); assay type: binding; conditions: test compound concentration 10 uM
T8 construct: purchased Eurofins Cerep (SafetyScreen44), recognised from the panel format
T8 sequence (P35372 whole entry): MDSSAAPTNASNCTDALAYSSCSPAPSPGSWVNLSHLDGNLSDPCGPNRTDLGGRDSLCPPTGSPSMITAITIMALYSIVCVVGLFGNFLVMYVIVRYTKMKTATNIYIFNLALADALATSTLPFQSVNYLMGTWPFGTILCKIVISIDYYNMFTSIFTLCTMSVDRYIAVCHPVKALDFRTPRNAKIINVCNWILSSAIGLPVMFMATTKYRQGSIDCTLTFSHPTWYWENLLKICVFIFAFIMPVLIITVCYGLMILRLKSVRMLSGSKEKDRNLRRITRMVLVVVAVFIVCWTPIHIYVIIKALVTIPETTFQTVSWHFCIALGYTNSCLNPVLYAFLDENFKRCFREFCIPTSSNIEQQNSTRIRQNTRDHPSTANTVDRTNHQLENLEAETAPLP
Source text: as §1

[3] = In vitro human hepatocyte stability; assay type: in vitro ADME
Source text: as §2

V1a (h) = biological target: T9, V1a (h) (Homo sapiens, UniProt P37288); experiment: In vitro CEREP profiling, V1a (h) (agonist radioligand); assay type: binding; conditions: test compound concentration 10 uM
T9 construct: purchased Eurofins Cerep (SafetyScreen44), recognised from the panel format
T9 sequence (P37288 whole entry): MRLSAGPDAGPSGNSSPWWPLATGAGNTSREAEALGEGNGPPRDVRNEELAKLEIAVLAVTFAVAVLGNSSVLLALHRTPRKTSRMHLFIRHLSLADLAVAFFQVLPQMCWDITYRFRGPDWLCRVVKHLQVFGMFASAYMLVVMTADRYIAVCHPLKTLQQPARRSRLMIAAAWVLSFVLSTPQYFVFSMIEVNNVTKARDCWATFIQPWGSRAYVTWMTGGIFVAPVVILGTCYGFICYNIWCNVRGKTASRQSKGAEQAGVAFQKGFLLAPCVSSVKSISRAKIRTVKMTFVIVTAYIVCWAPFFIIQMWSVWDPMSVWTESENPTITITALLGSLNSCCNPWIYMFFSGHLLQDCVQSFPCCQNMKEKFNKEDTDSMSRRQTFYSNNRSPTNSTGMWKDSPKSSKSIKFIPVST
Source text: as §1

ETA (h) = biological target: T10, ETA (h) (Homo sapiens, UniProt P25101); experiment: In vitro CEREP profiling, ETA (h) (agonist radioligand); assay type: binding; conditions: test compound 10 uM
T10 construct: purchased Eurofins Cerep (SafetyScreen44), recognised from the panel format
T10 sequence (P25101 21-427): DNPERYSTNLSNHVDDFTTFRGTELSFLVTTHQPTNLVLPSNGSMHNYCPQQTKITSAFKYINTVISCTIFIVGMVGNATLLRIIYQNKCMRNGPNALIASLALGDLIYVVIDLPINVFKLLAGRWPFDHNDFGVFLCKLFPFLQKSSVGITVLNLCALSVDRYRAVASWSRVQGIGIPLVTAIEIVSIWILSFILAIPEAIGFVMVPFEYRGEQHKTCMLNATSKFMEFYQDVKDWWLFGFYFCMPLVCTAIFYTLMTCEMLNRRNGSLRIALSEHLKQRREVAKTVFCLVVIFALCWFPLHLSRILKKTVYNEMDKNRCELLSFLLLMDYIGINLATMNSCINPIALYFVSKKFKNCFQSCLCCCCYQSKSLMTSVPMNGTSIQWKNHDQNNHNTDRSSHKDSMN
Source text: as §1

PDE3A (h) = biological target: T11, PDE3A (h) (Homo sapiens, UniProt Q14432); experiment: In vitro CEREP profiling, PDE3A (h); assay type: biochemical; conditions: test compound concentration 10 uM, Enzyme and Cell-based assays
T11 construct: purchased Eurofins Cerep (SafetyScreen44), recognised from the panel format
T11 sequence (Q14432 whole entry): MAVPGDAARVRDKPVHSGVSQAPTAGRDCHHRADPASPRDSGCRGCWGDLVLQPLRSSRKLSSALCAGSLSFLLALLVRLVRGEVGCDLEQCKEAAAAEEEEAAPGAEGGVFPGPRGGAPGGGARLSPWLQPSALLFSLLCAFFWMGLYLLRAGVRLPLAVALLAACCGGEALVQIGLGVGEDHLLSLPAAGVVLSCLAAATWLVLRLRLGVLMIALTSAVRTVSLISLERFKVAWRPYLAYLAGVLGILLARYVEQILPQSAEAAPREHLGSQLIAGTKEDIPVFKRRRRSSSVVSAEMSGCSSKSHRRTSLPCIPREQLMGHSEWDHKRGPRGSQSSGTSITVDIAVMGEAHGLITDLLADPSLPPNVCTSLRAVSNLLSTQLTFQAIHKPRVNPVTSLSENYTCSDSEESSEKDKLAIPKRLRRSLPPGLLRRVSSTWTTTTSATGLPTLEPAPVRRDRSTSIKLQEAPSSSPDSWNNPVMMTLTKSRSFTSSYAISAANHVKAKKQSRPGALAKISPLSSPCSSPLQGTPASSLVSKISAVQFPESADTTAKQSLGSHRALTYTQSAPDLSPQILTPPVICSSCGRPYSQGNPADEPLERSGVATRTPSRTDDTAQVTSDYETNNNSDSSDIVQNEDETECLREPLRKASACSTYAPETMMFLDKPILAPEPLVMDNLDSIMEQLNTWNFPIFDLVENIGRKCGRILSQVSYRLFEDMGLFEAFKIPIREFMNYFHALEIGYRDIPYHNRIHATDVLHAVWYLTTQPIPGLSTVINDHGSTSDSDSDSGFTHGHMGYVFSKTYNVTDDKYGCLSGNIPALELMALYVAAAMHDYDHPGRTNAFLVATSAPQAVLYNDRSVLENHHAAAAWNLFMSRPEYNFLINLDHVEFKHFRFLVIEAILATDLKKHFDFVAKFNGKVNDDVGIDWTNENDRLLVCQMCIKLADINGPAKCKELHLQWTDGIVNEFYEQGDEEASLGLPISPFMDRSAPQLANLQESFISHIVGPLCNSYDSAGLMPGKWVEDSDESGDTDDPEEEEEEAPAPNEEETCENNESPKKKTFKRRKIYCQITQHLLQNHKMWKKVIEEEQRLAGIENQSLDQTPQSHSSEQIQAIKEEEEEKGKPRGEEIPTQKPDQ
Source text: as §1

COX2(h) = biological target: T12, COX2(h) (Homo sapiens, UniProt P35354); experiment: In vitro CEREP profiling, COX2(h); assay type: biochemical; conditions: test compound concentration 10 uM, Enzyme and Cell-based assays
T12 construct: purchased Eurofins Cerep (SafetyScreen44), recognised from the panel format
T12 sequence (P35354 18-604): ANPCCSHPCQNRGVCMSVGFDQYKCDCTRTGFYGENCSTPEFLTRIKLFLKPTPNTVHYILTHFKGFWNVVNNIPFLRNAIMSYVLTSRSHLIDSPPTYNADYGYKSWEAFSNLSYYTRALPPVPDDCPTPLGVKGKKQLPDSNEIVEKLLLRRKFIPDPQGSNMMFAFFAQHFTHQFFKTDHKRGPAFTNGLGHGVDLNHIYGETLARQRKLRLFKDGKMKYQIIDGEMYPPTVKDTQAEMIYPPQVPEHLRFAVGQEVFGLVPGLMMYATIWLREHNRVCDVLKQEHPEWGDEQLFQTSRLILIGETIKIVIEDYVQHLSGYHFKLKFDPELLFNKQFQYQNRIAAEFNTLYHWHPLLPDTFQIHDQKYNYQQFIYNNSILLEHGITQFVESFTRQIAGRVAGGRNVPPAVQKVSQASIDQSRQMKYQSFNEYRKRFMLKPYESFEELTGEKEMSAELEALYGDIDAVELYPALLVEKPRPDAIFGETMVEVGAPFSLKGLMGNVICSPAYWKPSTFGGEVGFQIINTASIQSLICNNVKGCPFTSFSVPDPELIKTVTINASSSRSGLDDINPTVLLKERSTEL
Source text: as §1

BZD (central) = experiment: In vitro CEREP profiling, BZD (central) (agonist radioligand); assay type: binding; conditions: test compound 10 uM
Source text: as §1

[4] = protocol HeLa-ACE2 cytotoxicity
[5] = HeLa-ACE2 SARS-CoV-2 antiviral effect without P-gp inhibitor, maximum measured response of dose series
[6] = HeLa-ACE2 SARS-CoV-2 antiviral effect without P-gp inhibitor, minimum measured response of dose series
[7] = HeLa-ACE2 SARS-CoV-2 antiviral effect without P-gp inhibitor, read-out: ec90
[8] = HeLa-ACE2 SARS-CoV-2 antiviral effect without P-gp inhibitor, maximum measured response
[9] = HeLa-ACE2 SARS-CoV-2 antiviral effect without P-gp inhibitor, minimum measured response
[10] = read-out: perc_inhibition (% inhibition of the binding of a ligand specific for each target)
[11] = Severe acute respiratory syndrome coronavirus 2, HeLa-ACE2

## CC(C)[C@@H](Nc1ncnc2[nH]c(-c3cnn(C)c3C#N)cc12)c1ccc2c(n1)OCCO2 [ASAP-0008418]
HeLa-ACE2 cells; [4]
  CC50: > 50 µM
  cc10: > 50.0 µM
  perc_max_measured: 131.128% and 106.847%
  perc_min_measured: 59.813% and 94.114%
[1]; [5]
  perc_max_measured: 143.7% and 101.777%
[1]; [6]
  perc_min_measured: 4.604% and 4.949%
[1]; HeLa-ACE2 SARS-CoV-2 antiviral effect without P-gp inhibitor, read-out: ec50
  pEC50: 5.23 and 5.30
[1]; [7]
  EC90: 6.44 µM and 10.5 µM

## CC(C)[C@@H](Nc1ncnc2[nH]c(-c3cnn(C)c3C#N)cc12)c1ccc2c(n1)OCCO2 [ASAP-0010716]
HeLa-ACE2 cells; HeLa-ACE2 cytotoxicity
  CC50: > 20 µM
  cc10: > 20.0 µM
  perc_max_measured: 137.444% and 97.941%
  perc_min_measured: 84.699% and 78.982%
beta2 (h)
  perc_inhibition (% inhibition of the binding of a ligand specific for each target): 3%
[2]
  clint: 182.0 uL/min/1E6 cells
  t_half: 3.8 min
CB2 (h)
  perc_inhibition (% inhibition of the binding of a ligand specific for each target): 16%
[1]; [8]
  perc_max_measured: 105.062%
[1]; [5]
  perc_max_measured: 119.294%
[1]; [9]
  perc_min_measured: 1.471%
[1]; [6]
  perc_min_measured: 1.653%
[1]; [7]
  EC90: 7.55 µM and 9.22 µM
5-HT1B (h)
  perc_inhibition (% inhibition of the binding of a ligand specific for each target): 4%
KOR receptor
  perc_inhibition (% inhibition of the binding of a ligand specific for each target): 56%
KV channel
  perc_inhibition (% inhibition of the binding of a ligand specific for each target): 2%
CB1 (h)
  perc_inhibition (% inhibition of the binding of a ligand specific for each target): 14%
A2A (h)
  perc_inhibition (% inhibition of the binding of a ligand specific for each target): 69%
H1 (h)
  perc_inhibition (% inhibition of the binding of a ligand specific for each target): 0%
Mu (MOP) (h)
  perc_inhibition (% inhibition of the binding of a ligand specific for each target): 77%
[3]
  clint: 182.0 uL/min/1E6 cells
  t_half: 3.81 min
V1a (h)
  perc_inhibition (% inhibition of the binding of a ligand specific for each target): 20%
ETA (h)
  perc_inhibition (% inhibition of the binding of a ligand specific for each target): 5%
PDE3A (h)
  perc_inhibition: % inhibition of control enzyme activity, PDE3A (h): 37%
COX2(h)
  perc_inhibition: % inhibition of control enzyme activity, COX2(h): -7%
BZD (central)
  perc_inhibition (% inhibition of the binding of a ligand specific for each target): 8%

## Cc1nn(C)cc1-c1cc2c(NC(c3ccc4c(c3)S(=O)(=O)CCC4)C(C)C)ncnc2[nH]1 (stereo not drawn) [ASAP-0011446]
HeLa-ACE2 cells; HeLa-ACE2 cytotoxicity
  cc10: > 20.0 µM
  perc_max_measured: 134.035%
  perc_min_measured: 80.92%
HeLa-ACE2 cells; [4]
  CC50: > 20 µM
  cc10: > 20.0 µM
  perc_max_measured: 92.951%
  perc_min_measured: 82.728%
beta2 (h); [10]
  inhibition at 10 µM: -7%
CB2 (h); [10]
  inhibition at 10 µM: -8%
[1]; [8]
  perc_max_measured: 111.189%
[1]; [5]
  perc_max_measured: 120.747%
[1]; [9]
  perc_min_measured: 56.402%
[1]; [6]
  perc_min_measured: 82.491%
[1]; [11]
  pEC50: < 4.70
  EC90: > 20 µM
[1]; Severe acute respiratory syndrome coronavirus 2, HeLa-ACE2, read-out: HelaACE2 EC50
  pEC50: < 4.70
5-HT1B (h); [10]
  inhibition at 10 µM: 15%
KOR receptor; [10]
  inhibition at 10 µM: 45%
KV channel
  perc_inhibition (% inhibition of the binding of a ligand specific for each target): 1%
CB1 (h); [10]
  inhibition at 10 µM: 0%
A2A (h); [10]
  inhibition at 10 µM: 13%
H1 (h); [10]
  inhibition at 10 µM: 0%
Mu (MOP) (h); [10]
  inhibition at 10 µM: 28%
V1a (h); read-out: perc_inhibition, % inhibition of the binding of a ligand specific for each target
  inhibition at 10 µM: 14%
ETA (h); [10]
  inhibition at 10 µM: -4%
PDE3A (h); read-out: perc_inhibition: % inhibition of control enzyme activity, PDE3A (h)
  inhibition at 10 µM: 46%
COX2(h); read-out: perc_inhibition: % inhibition of control enzyme activity, COX2(h)
  inhibition at 10 µM: 23%
BZD (central)
  perc_inhibition (% inhibition of the binding of a ligand specific for each target): 29%
